{
  "source": "ChEMBL document CHEMBL1142497",
  "about": "“Emerging protein targets for anticancer metallodrugs: inhibition of thioredoxin reductase and cathepsin B by antitumor ruthenium(II)-arene compounds” (J Med Chem, 2008)",
  "key": {"[1]": {"biological_target": "T1, Thioredoxin reductase 1, cytoplasmic (Rattus norvegicus, UniProt O89049)", "T1 sequence (O89049 whole entry)": "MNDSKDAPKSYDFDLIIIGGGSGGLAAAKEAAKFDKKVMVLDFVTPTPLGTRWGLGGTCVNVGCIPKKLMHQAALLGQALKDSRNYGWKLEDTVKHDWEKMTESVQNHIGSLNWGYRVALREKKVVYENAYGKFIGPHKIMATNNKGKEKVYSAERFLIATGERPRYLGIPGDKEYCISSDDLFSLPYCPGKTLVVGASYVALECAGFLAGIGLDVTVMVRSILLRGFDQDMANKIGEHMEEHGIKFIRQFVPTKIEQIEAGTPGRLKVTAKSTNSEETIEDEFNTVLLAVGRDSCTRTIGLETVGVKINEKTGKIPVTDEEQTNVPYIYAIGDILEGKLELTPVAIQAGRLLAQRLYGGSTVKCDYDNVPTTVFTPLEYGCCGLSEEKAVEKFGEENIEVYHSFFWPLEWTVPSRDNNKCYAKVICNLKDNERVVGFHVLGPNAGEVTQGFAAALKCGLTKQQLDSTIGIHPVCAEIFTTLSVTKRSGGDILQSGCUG"}, "[2]": {"biological_target": "Thioredoxin reductase 2, mitochondrial (Rattus norvegicus, UniProt Q9Z0J5)", "sequence (Q9Z0J5 whole entry)": "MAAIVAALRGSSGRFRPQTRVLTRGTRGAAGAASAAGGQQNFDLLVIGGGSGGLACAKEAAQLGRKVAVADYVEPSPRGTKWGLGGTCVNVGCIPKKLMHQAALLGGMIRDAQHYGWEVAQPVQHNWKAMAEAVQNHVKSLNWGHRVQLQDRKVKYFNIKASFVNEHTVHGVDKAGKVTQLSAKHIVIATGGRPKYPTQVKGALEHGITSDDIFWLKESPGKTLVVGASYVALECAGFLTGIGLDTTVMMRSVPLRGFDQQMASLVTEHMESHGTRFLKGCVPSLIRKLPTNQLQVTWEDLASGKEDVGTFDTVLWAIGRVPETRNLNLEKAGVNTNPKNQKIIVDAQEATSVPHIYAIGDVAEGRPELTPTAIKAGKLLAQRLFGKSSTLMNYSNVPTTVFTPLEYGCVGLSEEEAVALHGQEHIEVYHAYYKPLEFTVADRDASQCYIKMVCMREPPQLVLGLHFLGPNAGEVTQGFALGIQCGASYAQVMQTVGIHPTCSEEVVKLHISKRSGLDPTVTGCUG"}},
  "note": "pIC50: −log10 of the molar value.",
  "data": [
    {"smiles": "O=C(O)C1(C(=O)O)CCC1", "values": [
      {"measurement": "pIC50", "setting": "[1]", "result": "< 3.70"},
      {"measurement": "pIC50", "setting": "[2]", "result": "< 3.70"}
    ]}
  ]
}
